This note sets out measurements from article PMC9616048, “Thermal proteome profiling reveals Haemonchus orphan protein HCO_011565 as a target of the nematocidal small molecule UMW-868” (Frontiers in Pharmacology, 2022).

The structures appear in SMILES notation. Like-named read-outs stand apart in the source and are kept apart here.

Broadly, the IC50 is the midpoint of a concentration-inhibition curve.

One series deals with H. contortus xL3s. Kind of series: Dose-response evaluation, xL3 motility. Conditions: Haemonchus contortus. The class given is cell-based. The procedure: (§1) These evaluations were carried out to estimate the half-maximal inhibitory concentrations (IC50 values) for hit compounds against H. contortus xL3s. With reference to the two positive-control compounds (monepantel and moxidectin), IC50 values for compounds were estimated ([Preston et al., 2015]; [Taki et al., 2021a]) using two-fold serial dilution (in LB*; 9 points from 50 μM to 0.2 µM) in 96-well plates (cat. no. 3596; Corning) with larvae at a density of 300 H. contortus xL3s in 100 µl per well. Plates containing H. contortus xL3s were incubated at 38°C, 10% (v/v) CO2 and >90% relative humidity.
(§2) Compound concentrations were log10-transformed and fitted using a variable slope four-parameter equation, constraining the highest value to 100% employing a least squares (ordinary) fit model using GraphPad Prism software (v.9.1.2). Compounds were tested by three independent experiments in triplicate. A one-way analysis of variance (ANOVA) with a Tukey’s multiple comparison test or an unpaired t-test was used to establish statistically significant differences in larval motility or development.

Series [1] deals with exsheathed third-stage larvae (xL3s) of H. contortus. The series can be described thus: High throughput screen, xL3 motility (infrared light beam-interference). The class given is cell-based. Conditions: Haemonchus contortus, 90 h, read-out: Motility reduction at 90 h (%). The procedure:
An established platform was used for compound screening ([Taki et al., 2021a]). Using a semi-automated liquid handling robot (VIAFLO ASSIST PLUS, Integra Biosciences), compounds were individually diluted to […] in LB* containing 0.2% (v/v) DMSO and then dispensed in 20 µl into the wells of sterile 384-well flat bottom microtitre plates (cat. no. 3680; Corning); 320 compounds were arrayed on each plate, with 16 wells being negative controls (with LB* + 0.2% DMSO) and four wells containing each monepantel (Zolvix; Elanco), moxidectin (Cydectin; Virbac), monepantel + abamectin (Zolvix Plus; Elanco) and compound MIPS-0018666 (abbreviated here as M-666) ([Le et al., 2018]) as positive controls (20 µM). Following the dilution and dispensing of compounds into plates, 80 H. contortus xL3s in 20 μl of LB* were transferred to individual wells; after this step, the final concentrations were 20 µM of test- or positive-control compound, and 0.2% of DMSO. During dispensing, xL3s were maintained in a homogenous suspension using a constant stream of bubbles produced employing an aquarium pump (H2Pro). Plates containing H. contortus xL3s were incubated at 38 °C, 10% (v/v) CO2 and >90% relative humidity.
After 90 h of incubation with compounds (20 μM), H. contortus xL3s motility was measured for 15 min in individual wells of each plate by infrared light beam-interference ([Simonetta and Golombek, 2007]) using a WMicroTracker ONE instrument (Phylumtech). Raw data captured were normalised against measurements obtained for the positive (monepantel) and negative (LB* + 0.2% DMSO) controls to remove plate-to-plate variation by calculating the percentage of motility using the program GraphPad Prism (v.9.1.2; GraphPad Software). A compound was considered active (“hit”) if it reduced larval motility by ≥ 70%. To continually assess the performance of the screening assay, the Z′-factor ([Zhang et al., 1999]) was calculated (using data for the DMSO and the M-666 controls) for individual plates (n = 43) and was consistently ≥0.7; reliable assays achieve a Z′-factor of between 0.5 and 1. The signal to background (S/B) ratio (for the same controls) ([Sui and Wu, 2007]) was consistently >200.

Series [2] relates to H. contortus fourth-stage larvae (L4s) development. The series can be described thus: Dose-response evaluation, L4 development. The class given is cell-based, Haemonchus contortus. Conditions: for IC50: Haemonchus contortus, 168 h. The procedure: as §1
as §2, with “The motility of H. contortus xL3s and L4 development were measured following 168 h of incubation with compound ([Taki et al., 2021a]). Compound concentrations” for “Compound concentrations”

The subject of the next series is He. polygyrus in mice. The series can be described thus: In vivo activity against He. polygyrus in mice. The method, then:
Candidate compound(s) were tested for their effect on other nematode species (He. polygyrus and A. ceylanicum) in infected rodents.
For He. polygyrus, four NMRI mice (3 weeks old; female) were infected orally with 88 He. polygyrus L3s, and immunosuppressed with 0.25 mg/ml dexamethasone (Sigma-Aldrich), in the drinking water, until 2 days prior to treatment ([Mes et al., 2007]). For A. ceylanicum, four Syrian golden hamsters (3 weeks old; male) were infected orally with 300 L3s without immunosuppression ([Tritten et al., 2012]). […] Four each of untreated mice and hamsters served as placebo controls. Six to 7 days post-treatment with the compound, all animals were euthanised by CO2 (hamsters being initially narcotised using isoflurane), and the intestine was dissected. The live adult worms were collected and counted to calculate the worm burden reductions and worm expulsion rates. The worm burden reduction was calculated using the mean number of live worms for the treated group and establishing the differences, in a percentage, with reference to the untreated control group.

Where [3] appears, read: mouse, He. polygyrus, 200 mg/kg single oral dose.

For the compound `CCCc1ccc(-c2nc(-c3cccs3)no2)cc1` [UMW-868, 5-(4-propylphenyl)-3-(2-thienyl)-1,2,4-oxadiazole], the half-inhibitory concentration (IC50) amounted to 5.6 µM in the series on H. contortus xL3s (90 h, xL3s, 90 h, read-out: IC50 (motility)); 13.8 µM in the series with H. contortus xL3s (168 h, analog series, read-out: xL3 motility reduction (IC50 in µM)); 50 µM in series [2] (analog series, read-out: L4 development inhibition (IC50 in µM)); 5.8 µM in series [2] (larval development inhibition, hit evaluation, read-out: IC50 (development)). For the same compound, in series [1], the inhibition at 20 µM came out at 78.4%. The “abnormal phenotypes in affected xL3s” value in series [2] (dose-response evaluation) is “curved or evisceration”. In the series with He. polygyrus in mice (mice, single oral dose, post-mortem examination), the “acute toxicity and pathological changes in treated animals” value was “neither evidence of acute toxicity”. Moreover, the “Mean no. of worms (SD)” value in the series with He. polygyrus in mice (setting [3]) was 12.0 (3.5). Also, the “Reduction in infection intensity (%)” value with He. polygyrus in mice (setting [3]) stood at 47%.
